Source: publication PMC12439480, “Dimeric CCK2R radiotheranostic tracers synergize with mTOR inhibition for enhanced tumor therapy” (Theranostics, 2025)
Numbered stars: 1 amine (or outer) side, 2 acyl side, 3 side chain; on linkers, the order of the positions; unused ones are H or OH. Square brackets hold non-standard residues; d marks the D form. Side chains are listed from the residue outwards. Peptide text beside a SMILES is read from it. * marks the point of attachment. DOTA = O=C(O)CN1CCN(CC(=O)O)CCN(CC(=O)*)CCN(CC(=O)O)CC1; d(γGlu) = O=C(O)[C@@H](CCC(=O)[*:2])N[*:1]; 1Nal = N[C@@H](Cc1cccc2ccccc12)C(=O)O; NMeNle = CCCC[C@H](NC)C(=O)O; PEG4 = NCCOCCOCCOCCOCCC(=O)O

Experiment: in vivo
Set-up: species or system BALB/c nude mice
Details: mouse; for tissue to tissue ratio at 0.5 h / tissue to tissue ratio at 1 h / tissue to tissue ratio at 2 h: female, BALB/c nude, iv, 3.7 MBq, total radioactivity
Method: To complement the imaging studies, biodistribution experiments were performed. AR42J tumor-bearing mice were intravenously injected with 3.7 MBq of [^68Ga]Ga-DOTA-CCK2R-dimer (≈ 120 pmol) or [^68Ga]Ga-DOTA-CCK-66 (≈ 210 pmol) (dissolved in 200 μL of saline; n = 3/group). The mice were sacrificed at 30, 60, and 120 min post-injection, and the tissues of interest were excised, weighed, and analyzed for radioactivity using a γ-counter. For blocking studies, a 400-fold excess of the lead compound was co-administered, and the mice were sacrificed at 1 h post-injection.
All animal studies were approved by the Ethics Committee of Fudan University
Shanghai Cancer Center (No. FUSCC-IACUC- S2023- 0003). Five-week-old female
BALB/c nude mice were purchased from Shanghai SLAC Laboratory Animal
Company. To establish cell-derived xenograft (CDX) models, 1 × 10⁶ AR42J cells
(100 μL) were subcutaneously inoculated into the right shoulder of each mouse. […]

[1] = Tumor-to-Large intestine ratio (T/B)
[2] = Tumor-to-Small intestine ratio (T/B)

Work on `CCCC[C@@H](C(=O)N[C@@H](CC(=O)O)C(=O)N[C@@H](Cc1cccc2ccccc12)C(N)=O)N(C)C(=O)[C@H](Cc1c[nH]c2ccccc12)NC(=O)CCOCCOCCOCCOCCNC(=O)CC[C@@H](NC(=O)CC[C@H](NC(=O)CN1CCN(CC(=O)O)CCN(CC(=O)O)CCN(CC(=O)O)CC1)C(=O)N[C@H](CCC(=O)NCCOCCOCCOCCOCCC(=O)N[C@@H](Cc1c[nH]c2ccccc12)C(=O)N(C)[C@@H](CCCC)C(=O)N[C@@H](CC(=O)O)C(=O)N[C@@H](Cc1cccc2ccccc12)C(N)=O)C(=O)O)C(=O)O` [[68Ga]Ga-DOTA-CCK2R-dimer, metal not drawn] ({DOTA}-E([d(γGlu)-PEG4-Trp-NMeNle-Asp-1Nal-NH2])[d(γGlu)][PEG4]W[NMeNle]D[1Nal]-NH2) yielded a tissue to tissue ratio at 0.5 h (Tumor-to-Bladder ratio (T/B)) of 7.42 ± 4.09, a tissue to tissue ratio at 1 h (Tumor-to-Bladder ratio (T/B)) of 8.41 ± 1.6 and a tissue to tissue ratio at 2 h (Tumor-to-Bladder ratio (T/B)) of 40.8 ± 16.9. It also gave a tissue to tissue ratio at 0.5 h (Tumor-to-Blood ratio (T/B)) of 3.01 ± 1.29, a tissue to tissue ratio at 1 h (Tumor-to-Blood ratio (T/B)) of 6.8 ± 4.41 and a tissue to tissue ratio at 2 h (Tumor-to-Blood ratio (T/B)) of 21.6 ± 9.41. For the same compound, the tissue to tissue ratio at 0.5 h (Tumor-to-Bone ratio (T/B)) was 19.2 ± 4.91, the tissue to tissue ratio at 1 h (Tumor-to-Bone ratio (T/B)) was 18.8 ± 5.04 and the tissue to tissue ratio at 2 h (Tumor-to-Bone ratio (T/B)) was 142 ± 25. It also gave a tissue to tissue ratio at 0.5 h (Tumor-to-Brain ratio (T/B)) of 39.7 ± 24.6, a tissue to tissue ratio at 1 h (Tumor-to-Brain ratio (T/B)) of 61.8 ± 7.46 and a tissue to tissue ratio at 2 h (Tumor-to-Brain ratio (T/B)) of 154 ± 17.5. For the same compound, the tissue to tissue ratio at 0.5 h (Tumor-to-Heart ratio (T/B)) was 5.23 ± 2.91, the tissue to tissue ratio at 1 h (Tumor-to-Heart ratio (T/B)) was 8.18 ± 0.91 and the tissue to tissue ratio at 2 h (Tumor-to-Heart ratio (T/B)) was 18.5 ± 3.74. For the same compound, the tissue to tissue ratio at 0.5 h (Tumor-to-Kidney ratio (T/B)) was 1.66 ± 1.37, the tissue to tissue ratio at 1 h (Tumor-to-Kidney ratio (T/B)) was 1.15 ± 0.15 and the tissue to tissue ratio at 2 h (Tumor-to-Kidney ratio (T/B)) was 1.62 ± 0.29. For the same compound, the tissue to tissue ratio at 0.5 h [1] was 8.98 ± 3.85, the tissue to tissue ratio at 1 h [1] was 10.5 ± 1.55 and the tissue to tissue ratio at 2 h [1] was 40.2 ± 29.4. The tissue to tissue ratio at 0.5 h (Tumor-to-Liver ratio (T/B)) was 2.07 ± 1.51, the tissue to tissue ratio at 1 h (Tumor-to-Liver ratio (T/B)) was 3.05 ± 0.56 and the tissue to tissue ratio at 2 h (Tumor-to-Liver ratio (T/B)) was 11.9 ± 4.6. It also gave a tissue to tissue ratio at 0.5 h (Tumor-to-Lung ratio (T/B)) of 3.34 ± 2.07, a tissue to tissue ratio at 1 h (Tumor-to-Lung ratio (T/B)) of 5.56 ± 2.82 and a tissue to tissue ratio at 2 h (Tumor-to-Lung ratio (T/B)) of 19.7 ± 2.99. The tissue to tissue ratio at 0.5 h (Tumor-to-Muscle ratio (T/M)) was 11.8 ± 5.75, the tissue to tissue ratio at 1 h (Tumor-to-Muscle ratio (T/M)) was 16.5 ± 2.99 and the tissue to tissue ratio at 2 h (Tumor-to-Muscle ratio (T/M)) was 33 ± 7.91. For the same compound, the tissue to tissue ratio at 0.5 h [2] was 7.72 ± 2.49, the tissue to tissue ratio at 1 h [2] was 8.04 ± 2.02 and the tissue to tissue ratio at 2 h [2] was 26 ± 11.9. It also gave a tissue to tissue ratio at 0.5 h (Tumor-to-Spleen ratio (T/B)) of 7.04 ± 3.92, a tissue to tissue ratio at 1 h (Tumor-to-Spleen ratio (T/B)) of 12.6 ± 2 and a tissue to tissue ratio at 2 h (Tumor-to-Spleen ratio (T/B)) of 39.4 ± 7.6. It also gave a tissue to tissue ratio at 0.5 h (Tumor-to-Stomach ratio (T/B)) of 4.5 ± 3.7, a tissue to tissue ratio at 1 h (Tumor-to-Stomach ratio (T/B)) of 5.93 ± 0.89 and a tissue to tissue ratio at 2 h (Tumor-to-Stomach ratio (T/B)) of 10.5 ± 2.83. For the same compound, the tissue uptake at 0.5 h (Bladder uptake) was 0.97 ± 0.52 %ID/g, the tissue uptake at 1 h (Bladder uptake) was 1.59 ± 0.58 %ID/g and the tissue uptake at 2 h (Bladder uptake) was 0.53 ± 0.15 %ID/g. The tissue uptake at 0.5 h (Blood uptake) was 2.25 ± 1.2 %ID/g, the tissue uptake at 2 h (Blood uptake) was 1.56 ± 0.97 %ID/g and the tissue uptake at 0.5 h (Bone uptake) was 0.78 ± 0.48 %ID/g. For the same compound, the tissue uptake at 2 h (Bone uptake) was 0.22 ± 0.18 %ID/g, the tissue uptake at 0.5 h (Brain uptake) was 0.17 ± 0.07 %ID/g and the tissue uptake at 2 h (Brain uptake) was 0.06 ± 0.04 %ID/g. For the same compound, the tissue uptake at 0.5 h (Heart uptake) was 1.26 ± 0.44 %ID/g, the tissue uptake at 2 h (Heart uptake) was 1.14 ± 0.39 %ID/g and the tissue uptake at 0.5 h (Kidney uptake) was 5.24 ± 3.64 %ID/g. It also gave a tissue uptake at 1 h (Kidney uptake) of 11.2 ± 1.84 %ID/g, a tissue uptake at 2 h (Kidney uptake) of 12.7 ± 3.23 %ID/g and a tissue uptake at 0.5 h (Large intestine uptake) of 1.38 ± 1.37 %ID/g. For the same compound, the tissue uptake at 2 h (Large intestine uptake) was 0.67 ± 0.34 %ID/g, the tissue uptake at 0.5 h (Liver uptake) was 3.45 ± 1.37 %ID/g and the tissue uptake at 1 h (Liver uptake) was 4.24 ± 0.47 %ID/g. For the same compound, the tissue uptake at 2 h (Liver uptake) was 2.01 ± 1.19 %ID/g, the tissue uptake at 0.5 h (Lung uptake) was 2.01 ± 0.71 %ID/g and the tissue uptake at 2 h (Lung uptake) was 1.02 ± 0.01 %ID/g. The tissue uptake at 0.5 h (Muscle uptake) was 0.57 ± 0.24 %ID/g, the tissue uptake at 2 h (Muscle uptake) was 0.62 ± 0.19 %ID/g and the tissue uptake at 0.5 h (Small intestine uptake) was 1.48 ± 0.73 %ID/g. The tissue uptake at 2 h (Small intestine uptake) was 0.86 ± 0.32 %ID/g, the tissue uptake at 0.5 h (Spleen uptake) was 0.96 ± 0.4 %ID/g and the tissue uptake at 2 h (Spleen uptake) was 0.52 ± 0.05 %ID/g. The tissue uptake at 0.5 h (Stomach uptake) was 1.11 ± 0.59 %ID/g, the tissue uptake at 2 h (Stomach uptake) was 1.97 ± 0.39 %ID/g and the tissue uptake at 0.5 h (Tumor uptake) was 5.81 ± 1.83 %ID/g. For the same compound, the tissue uptake at 2 h (Tumor uptake) was 20.2 ± 3.31 %ID/g.
